Publication doi:10.1101/2024.06.14.598950v1 (biorxiv, 2024)

Key:
Assay in all cases: DTNB spectrophotometric assay, nonlinear regression
Assay type in all cases: biochemical, Brassica juncea
Conditions in all cases: 30 °C
Bju.IPMS1-B1 = test system: Bju.IPMS1-B1
Bju.IPMS1-A2 = test system: Bju.IPMS1-A2
Bju.IPMS1-A1 = test system: Bju.IPMS1-A1
Bju.IPMS1-B2 = test system: Bju.IPMS1-B2

Km (Bju.IPMS1-B1; 0.5 mM acetyl-CoA) [µM]	Km (Bju.IPMS1-A2; 0.5 mM acetyl-CoA) [µM]	Km (Bju.IPMS1-A1; 0.5 mM acetyl-CoA) [µM]	Km (Bju.IPMS1-B2; 0.5 mM acetyl-CoA) [µM]	Km (Bju.IPMS1-B1; 1 mM 2-oxoisovalerate) [µM]	Km (Bju.IPMS1-A2; 1 mM 2-oxoisovalerate) [µM]	Km (Bju.IPMS1-A1; 1 mM 2-oxoisovalerate) [µM]	Km (Bju.IPMS1-B2; 1 mM 2-oxoisovalerate) [µM]	Structure (SMILES)
217 ± 67.2	144 ± 40.9	158 ± 35.4	231 ± 47.1					CC(C)C(=O)C(=O)O [2-oxoisovalerate, 3-methyl-2-oxobutanoate]
				1260 ± 369	406 ± 75.9	770 ± 211	532 ± 91.9	CC(=O)SCCNC(=O)CCNC(=O)[C@H](O)C(C)(C)COP(=O)(O)OP(=O)(O)OC[C@H]1O[C@@H](n2cnc3c(N)ncnc32)[C@H](O)[C@@H]1OP(=O)(O)O [acetyl-CoA]
